Source: patent US20240208986A1, “PHENYL AZEPINES AS RIPK1 INHIBITORS AND METHODS OF USE THEREOF” (Merck Sharp & Dohme LLC, priority 2021, published 2024)

Each compound was assayed against RIPK1 (recombinant GST-RIPK1 kinase domain, residues 1-327) (Homo sapiens (Human), UniProt Q13546) (assay: RIPK1-ADP-Glo Enzymatic Assay). Settings: 25 nM GST-RIPK1, 300 μM ATP, 3 μM dephosphorylated-MBP; 30 minutes pre-incubation, 150 minutes reaction; ten-point titration.
Type: biochemical
Protocol: The enzymatic activity of RIPK1 is measured using an assay derived from ADP-Glo kit (™Promega), which provides a luminescent-based ADP detection system. Specifically, the ADP generated by RIPK1 kinase is proportionally detected as luminescent signals in a homogenous fashion. In this context, the assessment of the inhibitory effect of small molecules (EC50) is measured by the effectiveness of the compounds to inhibit the ATP to ADP conversion by RIPK1.
In this assay, the potency (EC50) of each compound was determined from a ten-point (1:3 serial dilution; top compound concentration of 100000 nM) titration curve using the following outlined procedure. To each well of a white ProxiPlus 384 well-plate, 30 nL of compound (1% DMSO in final assay volume of 3 μL) was dispensed, followed by the addition of 2 μL of 1× assay buffer (25 mM Hepes 7.3, 20 mM MgCl2, 50 mM NaCl, 1 mM DTT, 0.005% Tween20, and 0.02% BSA) containing 37.5 nM of GST-RIPK1 (recombinant GST-RIPK1 kinase domain (residues 1-327) enzyme produced from baculovirus-transfected Sf21 cells: MW=62 kDa). Plates were placed in an ambient temperature humidified chamber for a 30 minutes pre-incubation with compound. Subsequently, each reaction was initiated by the addition of 1 μL 1× assay buffer containing 900 μM ATP and 3 μM dephosphorylated-MBP substrate. The final reaction in each well of 3 μL consists of 25 nM of GST-RIPK1, 300 μM ATP, and 3 μM dephosphorylated-MBP. Kinase reactions were allowed to proceed for 150 minutes prior to adding ADP-Glo reagents per Promega's outlined kit protocol. Dose-response curves were generated by plotting percent effect (% product conversion; Y-axis) vs. Log10 compound concentrations (X-axis). EC50 values were calculated using a non-linear regression, four-parameters sigmoidal dose-response model.

Chain of RIPK1 (recombinant GST-RIPK1 kinase domain, residues 1-327) (Q13546 1-327): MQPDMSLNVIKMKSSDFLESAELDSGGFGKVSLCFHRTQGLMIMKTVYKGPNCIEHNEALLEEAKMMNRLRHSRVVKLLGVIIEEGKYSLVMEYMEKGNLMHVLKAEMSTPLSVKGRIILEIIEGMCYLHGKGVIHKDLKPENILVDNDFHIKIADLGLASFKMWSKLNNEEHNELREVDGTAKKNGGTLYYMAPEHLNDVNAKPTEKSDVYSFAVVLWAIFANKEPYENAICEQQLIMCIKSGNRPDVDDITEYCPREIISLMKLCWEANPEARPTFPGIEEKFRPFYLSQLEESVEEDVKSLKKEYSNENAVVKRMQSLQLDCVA

IC50 | Structure (SMILES)
17800 nM | CC(C)(C)C(=O)N1C[C@]2(C)C[C@H]1c1ccccc1O2 [Compound 3-5, 2,2-dimethyl-1-((2S,5S)-2-methyl-2,3-dihydro-2,5-methanobenzo[f][1,4]oxaze-pin-4(5H)-yl)propan-1-one]
132 nM | C[C@@H]1[C@@H]2C[C@@H](c3ccccc3O2)N1C(=O)C(C)(C)C [Compound 2-31, 2,2-dimethyl-1-((2S,3R,5S)-3-methyl-2,3-dihydro-2,5-methanobenzo[f][1,4]oxaze-pin-4(5H)-yl)propan-1-one]
15 nM | O=C(N1C[C@@H]2C[C@H]1c1cc(F)ccc1O2)C12CCC(CC1)C2 [Compound 2-14, (bicyclo[2.2.1]heptan-1-yl)[(2S,5S)-7-fluoro-2,3-dihydro-2,5-methano-1,4-benzoxazepin-4(5H)-yl]methanone]
18 nM | CC(C)(C(=O)N1C[C@@H]2C[C@H]1c1cccc(C#N)c1O2)C(F)F [Compound 2-19, (2S,5S)-4-(3,3-difluoro-2,2-dimethylpropanoyl)-2,3,4,5-tetrahydro-2,5-methano-1,4-benzoxazepine-9-carbonitrile]
2240 nM | CC(C)(C)C(=O)N1C[C@H]2Cc3ccccc3[C@@H]1C2 [Compound 3-2, 2,2-dimethyl-1-((1S,4S)-1,3,4,5-tetrahydro-2H-1,4-methanobenzo[c]azepin-2-yl)propan-1-one]
20 nM | CC(C)(C(=O)N1C[C@@H]2C[C@H]1c1cccc(F)c1O2)C(F)F [Compound 2-8, 3,3-difluoro-1-[(2S,5S)-9-fluoro-2,3-dihydro-2,5-methano-1,4-benzoxazepin-4(5H)-yl]-2,2-dimethylpropan-1-one]
20 nM | CC(F)(F)C(C)(C)C(=O)N1C[C@@H]2C[C@H]1c1cccc(F)c1O2 [Compound 2-12, 3,3-difluoro-1-[(2S,5S)-9-fluoro-2,3-dihydro-2,5-methano-1,4-benzoxazepin-4(5H)-yl]-2,2-dimethylbutan-1-one]
12 nM | O=C(N1C[C@@H]2C[C@H]1c1cc(F)cc(F)c1O2)C12CCC(F)(CC1)C2 [Compound 2-35, ((2S,5S)-7,9-difluoro-2,3-dihydro-2,5-methanobenzo[f][1,4]oxaze-pin-4(5H)-yl)(4-fluorobicyclo[2.2.1]heptan-1-yl)methanone]
61 nM | CC(C)(C(=O)N1C[C@@H]2C[C@H]1c1cc(Cl)ccc1O2)C(F)F [Compound 2-1, 1-[(2S,5S)-7-chloro-2,3-dihydro-2,5-methano-1,4-benzoxazepin-4(5H)-yl]-3,3-difluoro-2,2-dimethylpropan-1-one]
63 nM | CC1(C(=O)N2C[C@@H]3C[C@H]2c2cc(F)ccc2O3)CCC1 [Compound 2-9, [(2S,5S)-7-fluoro-2,3-dihydro-2,5-methano-1,4-benzoxazepin-4(5H)-yl](1-methylcyclobutyl)methanone]
26 nM | O=C(N1C[C@@H]2C[C@H]1c1ccc(Cl)cc1O2)C12CCC(F)(CC1)C2 [Compound 2-33, ((2S,5S)-8-chloro-2,3-dihydro-2,5-methanobenzo[f][1,4]oxaze-pin-4(5H)-yl)(4-fluorobicyclo[2.2.1]heptan-1-yl)methanone]

The next lines start with the compound.

Structure (SMILES) | IC50
COc1ccc(CC(C)(C)C(=O)N2C[C@@H]3C[C@H]2c2ccccc2O3)cc1 [Compound 1-58, 1-[(2S,5S)-2,3-dihydro-2,5-methano-1,4-benzoxazepin-4(5H)-yl]-3-(4-methoxyphenyl)-2,2-dimethylpropan-1-one] | 887 nM
CCC(C)(C)C(=O)N1C[C@@H]2C[C@H]1c1ccccc1O2 [Compound 1-22, 1-[(2S,5S)-2,3-dihydro-2,5-methano-1,4-benzoxazepin-4(5H)-yl]-2,2-dimethylbutan-1-one] | 21 nM
CC(C)(COC(F)(F)F)C(=O)N1C[C@@H]2C[C@H]1c1ccccc1O2 [Compound 1-7, 1-((2S,5S)-2,3-dihydro-2,5-methanobenzo[f][1,4]oxaze-pin-4(5H)-yl)-2,2-dimethyl-3-(trifluoromethoxy)propan-1-one] | 217 nM
O=C(N1C[C@@H]2C[C@H]1c1ccccc1O2)C12CC(C1)C2 [Compound 1-38, (bicyclo[1.1.1]pentan-1-yl)[(2S,5S)-2,3-dihydro-2,5-methano-1,4-benzoxazepin-4(5H)-yl]methanone] | 146 nM
O=C(N1C[C@@H]2C[C@H]1c1ccccc1O2)C12CC(C(F)(F)F)(C1)C2 [Compound 1-52, [(2S,5S)-2,3-dihydro-2,5-methano-1,4-benzoxazepin-4(5H)-yl][3-(trifluoromethyl)bicyclo [1.1.1]pentan-1-yl]methanone] | 199 nM
CC(C)(C)C(=O)N1C2CCC1c1ccccc1OC2 (single isomer, unassigned) [Compound 3-1, 2,2-dimethyl-1-((3S,6R or 3R,6S)-3,4,5,6-tetrahydro-2H-3,6-epiminobenzo[b]oxocin-11-yl)propan-1-one] | 281 nM
CC(C)(C)CC(=O)N1C[C@@H]2C[C@H]1c1ccccc1O2 [Compound 1-21, 1-[(2S,5S)-2,3-dihydro-2,5-methano-1,4-benzoxazepin-4(5H)-yl]-3,3-dimethylbutan-1-one] | 888 nM
N#Cc1cc(N2CCC(F)(C(=O)N3C[C@@H]4C[C@H]3c3ccccc3O4)CC2)ncn1 [Compound 1-49, 6-{4-[(2S,5S)-2,3-dihydro-2,5-methano-1,4-benzoxazepine-4(5H)-carbonyl]-4-fluoropiperidin-1-yl}pyrimidine-4-carbonitrile] | 117 nM
CC(C)(C(=O)N1C[C@@H]2C[C@H]1c1ccccc1O2)C(F)F [Compound 1-2, 1-((2S,5S)-2,3-dihydro-2,5-methanobenzo[f][1,4]oxaze-pin-4(5H)-yl)-3,3-difluoro-2,2-dimethylpropan-1-one] | 61 nM
O=C(N1C[C@@H]2C[C@H]1c1ccccc1O2)C1(C(F)F)CCC1 [Compound 1-29, [1-(difluoromethyl)cyclobutyl] [(2S,5S)-2,3-dihydro-2,5-methano-1,4-benzoxazepin-4(5H)-yl]methanone] | 58 nM
O=C(N1C[C@@H]2C[C@H]1c1ccccc1O2)C1(C(F)(F)F)CCC1 [Compound 1-16, [(2S,5S)-2,3-dihydro-2,5-methano-1,4-benzoxazepin-4(5H)-yl][1-(trifluoromethyl)cyclobutyl] methanone] | 96 nM
O=C(N1C[C@@H]2C[C@H]1c1ccccc1O2)C12CCC(F)(CC1)C2 [Compound 1-40, ((2S,5S)-2,3-dihydro-2,5-methanobenzo[f][1,4]oxaze-pin-4(5H)-yl)(4-fluorobicyclo[2.2.1]heptan-1-yl)methanone] | 23 nM
CC(F)(F)C1(C(=O)N2C[C@@H]3C[C@H]2c2ccccc2O3)CCC1 [Compound 1-12, [1-(1,1-difluoroethyl)cyclobutyl] [(2S,5S)-2,3-dihydro-2,5-methano-1,4-benzoxazepin-4(5H)-yl]methanone] | 86 nM
O=C(C1CCCCC12CC2)N1C[C@@H]2C[C@H]1c1ccccc1O2 (mixture of isomers) [Compound 1-35, [(2S,5S)-2,3-dihydro-2,5-methano-1,4-benzoxazepin-4(5H)-yl]-[(R and S)-spiro[2.5]octan-4-yl]methanone] | 220 nM
CC(CF)(CF)C(=O)N1C[C@@H]2C[C@H]1c1ccccc1O2 [Compound 1-33, 1-[(2S,5S)-2,3-dihydro-2,5-methano-1,4-benzoxazepin-4(5H)-yl]-3-fluoro-2-(fluoromethyl)-2-methylpropan-1-one] | 881 nM
